In general, IC50 refers to the concentration at which inhibition is half-maximal. A low value points to greater potency in that assay.

Each structure is given as a SMILES string.

This assay deals with T1, human SGLT2 (Homo sapiens, UniProt P31639).
T1 construct: expressed in transfected cells; host or cells: CHO-K1
T1 sequence (P31639 1-672): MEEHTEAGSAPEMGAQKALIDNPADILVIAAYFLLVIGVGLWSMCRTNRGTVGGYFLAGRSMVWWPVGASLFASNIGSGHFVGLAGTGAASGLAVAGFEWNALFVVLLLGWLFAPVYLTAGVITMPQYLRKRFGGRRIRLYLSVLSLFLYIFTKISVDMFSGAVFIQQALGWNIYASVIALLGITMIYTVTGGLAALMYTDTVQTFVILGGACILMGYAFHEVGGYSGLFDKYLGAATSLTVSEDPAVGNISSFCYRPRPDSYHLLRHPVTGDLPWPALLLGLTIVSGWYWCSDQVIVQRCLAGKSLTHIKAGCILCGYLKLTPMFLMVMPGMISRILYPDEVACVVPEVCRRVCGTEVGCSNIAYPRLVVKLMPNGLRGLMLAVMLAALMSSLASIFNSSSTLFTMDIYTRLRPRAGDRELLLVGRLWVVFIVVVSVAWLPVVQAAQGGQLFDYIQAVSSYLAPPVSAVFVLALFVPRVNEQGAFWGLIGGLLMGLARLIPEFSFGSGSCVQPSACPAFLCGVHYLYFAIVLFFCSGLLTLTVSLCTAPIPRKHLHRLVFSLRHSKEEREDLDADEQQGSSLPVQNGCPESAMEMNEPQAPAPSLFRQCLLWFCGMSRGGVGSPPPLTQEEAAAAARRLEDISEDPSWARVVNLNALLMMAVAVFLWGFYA
The assay is described as follows: Methyl-α-D-glucopyranoside intake inhibition activity in human SGLT2 stable expression CHO cells. The assay is classed as cell-based. To be noted: methyl-α-D-(U-14C)glucopyranoside intake, 37° C., 45 minutes. As to the method:
Test for Confirming Action of Inhibiting Human Na^+-Glucose Co-Transporters (SGLT1 and SGLT2)
(2) Preparation of Human SGLT2 Expression Vector
PCR was performed by KOD+DNA polymerase by taking a human kidney-derived cDNA library (a product of Clontech) as a template with the use of a synthesized DNA primer to amplify human SGLT2 cDNA. […] From the proliferated E. coli, a plasmid was purified according to the usual way. By taking this plasmid as a template, PCR was performed by KOD+DNA polymerase with the use of a synthetic DNA primer into which restriction enzyme recognition sites had been introduced to amplify human SGLT2 cDNA (a fragment added with Xho I recognition site on the upstream side and a Hind III recognition site on the downstream side). This amplified fragment was subjected to Xho I and Hind III digestion, and the digested fragments were connected to their recognition sites of the expression vector pcDNA 3.1(−) with the use of the Rapid DNA Ligation kit. The connected expression vector was introduced into E. coli competent cells (DH5α) and proliferated in an ampicillin-containing LB medium to obtain a human SGLT2 expression vector according to the usual way.
(3) Preparation of Human SGLT1 Stable Expression Cell and Human SGLT2 Stable Expression Cell
The human SGLT1 expression vector or the human SGLT2 expression vector which was digested with restriction enzyme Pvu I was introduced into CHO-K1 cells with the use of FuGene (a product of Roche Diagonostics). After introduction of the gene, the cells were incubated in a DMEM medium (a product of Gibco) containing penicillin (50 U/mL, a product of Sigma), streptomycin (50 mg/L, a product of Sigma), Geneticin (200 mg/L, a product of Nakalai Tesque) and 20% bovine fetal serum in the presence of 5% CO2 at 37° C. for about three weeks to obtain Genticin-resistant clones. From these clones, cells capable of stably expressing human SGLT1 or the human SGLT2 were selected and obtained by using sodium dependent sugar (methyl-α-D-glucopyranoside) intake activity as an index.
(4) Measurement of Methyl-α-D-glucopyranoside Intake Inhibition Activity
The human SGLT1 stable expression CHO cells or the human SGLT2 stable expression CHO cells was seeded in a 96-well plate to a density of 30,000 to 40,000 cells/well and incubated for four to six days. Next, the medium of the culture plate was removed, and a pretreatment buffer (a buffer containing 140 mM of choline chloride, 2 mM of potassium chloride, 1 mM of calcium chloride, 1 mM of magnesium chloride, 10 mM of 2-[4-(2-hydroxyethyl)-1-piperazinyl]ethanesulfonic acid and tris(hydroxymethyl)-aminomethane and having a pH of 7.4) was added in an amount of 150 μL per well and then left to stand at 37° C. for 20 minutes. The pretreatment buffer was removed and the pretreatment buffer was again added in an amount of 50 μL per well and then left to stand at 37° C. for 20 minutes. To 100 mL of a buffer (a buffer containing 140 mM of sodium chloride, 1 mM of potassium chloride, 1 mM of magnesium chloride, 1 mM of methyl-α-D-glucopyranoside, 10 mM of 2-[4-(2-hydroxyethyl)-1-piperazinyl]ethanesulfonic acid and tris(hydroxymethyl)aminomethane and having a pH of 7.4), there was added and mixed 6.3 mL of methyl-α-D-(U-^14C)glucopyranoside (200 mCi/L, a product of Amersham Pharmacia Biotech) to prepare an intake buffer, and a test compound was dissolved in this intake buffer and the resulting solution was used as a buffer for determining inhibition activity. Further, as a control, a test compound-free intake buffer was used. Furthermore, in order to determine a basic intake in the absence of the test compound and sodium, a basic intake buffer containing 140 mM of choline chloride instead of the sodium chloride was prepared in the same manner and used in the determina-tion. […]
As for `COc1ccc(Cc2cccc([C@@H]3C[C@H](CO)[C@@H](O)[C@H](O)[C@H]3O)c2)cc1` (single isomer, unassigned) [Example 2], 0.111 µM corresponded to half-maximal inhibition (IC50). Consider `COc1ccc(Cc2ccccc2O[C@@H]2C[C@H](CO)[C@@H](O)[C@H](O)[C@H]2O)cc1` [Example 1, [2-(4-Methoxybenzyl)phenyl]-5a-carba-β-D-glucopyranoside], for which the IC50 is 0.061 µM. In turn, `OC[C@H]1C[C@@H](Oc2ccccc2Cc2ccc(C3CC3)cc2)[C@H](O)[C@@H](O)[C@@H]1O` [Example 8, [2-(4-Cyclopropylbenzyl)phenyl]-5a-carba-β-D-glucopyranoside] yielded an IC50 of 0.007 µM. The compound `CSc1ccc(Cc2ccccc2O[C@@H]2C[C@H](CO)[C@@H](O)[C@H](O)[C@H]2O)cc1` [Example 11, [2-(4-Methylsulfanylbenzyl)phenyl]-5a-carba-β-D-gluco-pyranoside] returned an IC50 of 0.014 µM. `COc1ccc(Cc2c(F)cccc2O[C@@H]2C[C@H](CO)[C@@H](O)[C@H](O)[C@H]2O)cc1` [Example 12]: the IC50 worked out at 0.018 µM. Take `CCc1ccc(Cc2ccccc2O[C@@H]2C[C@H](CO)[C@@H](O)[C@H](O)[C@H]2O)cc1` [Example 25, [2-(4-Ethylbenzyl)phenyl]-5a-carba-β-D-glucopyranoside]: the IC50 turned out to be 0.031 µM.

As for `OC[C@H]1C[C@@H](Oc2cnccc2Cc2ccc(C3CC3)cc2)[C@H](O)[C@@H](O)[C@@H]1O` [Example 42, [4-(4-Cyclopropylbenzyl)pyridin-3-yl]-5a-carba-β-D-gluco-pyranoside], the IC50 was found to be 0.0077 µM. `C=Cc1ccc(Cc2ccccc2O[C@@H]2C[C@H](CO)[C@@H](O)[C@H](O)[C@H]2O)cc1` [Example 44, [2-(4-Vinylbenzyl)phenyl]-5a-carba-β-D-glucopyranoside]: the half-maximal inhibitory concentration (IC50) is 0.016 µM. For the compound `COc1ccc(Cc2ccc(C)cc2O[C@@H]2C[C@H](CO)[C@@H](O)[C@H](O)[C@H]2O)cc1` [Example 54, [2-(4-Methoxybenzyl)-5-methylphenyl]-5a-carba-β-D-gluco-pyranoside], half-maximal inhibition (IC50) was put at 0.014 µM. In the case of `CCc1ccc(Cc2sccc2O[C@@H]2C[C@H](CO)[C@@H](O)[C@H](O)[C@H]2O)cc1` [Example 55, [2-(4-Ethylbenzyl)thiophen-3-yl]-5a-carba-β-D-gluco-pyranoside], it took 0.017 µM to reach half-maximal inhibition (IC50). For `Cc1cc(O[C@@H]2C[C@H](CO)[C@@H](O)[C@H](O)[C@H]2O)c(Cc2ccc(C3CC3)cc2)s1` [Example 59, [2-(4-Cyclopropylbenzyl)-5-methylthiophen-3-yl]-5a-carba-β-D-glucopyranoside] the value was 0.0089 µM; for `OCC1=C[C@@H](Oc2ccccc2Cc2ccc(C3CC3)cc2)[C@H](O)[C@@H](O)[C@@H]1O` [Example 62, (1R,2S,3R,6R)-6-[2-(4-Cyclopropylbenzyl)phenoxy]-4-(hydroxymethyl)cyclohex-4-ene-1,2,3-triol], 0.0071 µM.

As for `CCc1ccc(Cc2cccc(C3=C[C@H](CO)[C@@H](O)[C@H](O)[C@H]3O)c2)cc1` [Example 64, (1R,2S,3S,6R)-4-[3-(4-Ethylbenzyl)phenyl]-6-(hydroxy-methyl)cyclohex-4-ene-1,2,3-triol], inhibition was half-maximal at 0.0066 µM (IC50).

Take `CCOc1ccc(Cc2ccc(CC)cc2)cc1[C@@H]1C[C@H](CO)[C@@H](O)[C@H](O)[C@H]1O` [Example 68, (1R,2R,3S,4S,6R)-4-[2-Ethoxy-5-(4-ethylbenzyl)phenyl]-6-(hydroxymethyl)cyclohexane-1,2,3-triol]: the IC50 came out at 0.018 µM. As for `CCc1ccc(Cc2cc([C@]3(O)C[C@H](CO)[C@@H](O)[C@H](O)[C@H]3O)c(OC)cc2OC)cc1` [Example 69, (1R,2R,3S,4R,5R)-1-[5-(4-Ethylbenzyl)-2,4-dimethoxy-phenyl]-5-(hydroxymethyl)cyclohexane-1,2,3,4-tetraol], the figure is 0.0051 µM. The compound `CCc1ccc(Cc2cc([C@@H]3C[C@H](CO)[C@@H](O)[C@H](O)[C@H]3O)c(OC)cc2OC)cc1` [Example 70, (1R,2R,3S,4S,6R)-4-[5-(4-Ethylbenzyl)-2,4-dimethoxy-phenyl]-6-(hydroxymethyl)cyclohexane-1,2,3-triol] returned an IC50 of 0.0074 µM. Compound `CCc1ccc(Cc2ccc(OC)c([C@]3(O)C[C@H](CO)[C@@H](O)[C@H](O)[C@H]3O)c2)cc1` [Example 73, (1R,2R,3S,4R,5R)-1-[5-(4-Ethylbenzyl)-2-methoxyphenyl]-5-(hydroxymethyl)cyclohexane-1,2,3,4-tetraol] gave a half-inhibitory concentration (IC50) of 0.011 µM.

The record behind these values is US8048897B2, “Cyclohexane derivative, prodrug thereof and salt thereof, and therapeutic agent containing the same for diabetes” (Chugai Seiyaku Kabushiki Kaisha, priority 2004, dated 2011).
